Source: US20030110574A1, “Use of optical brighteners from the class of the stilbene compounds as antimicrobially active substances” (priority 2000, published 2003)

Test system: bacterial mixture of Staphylococcus aureus ATCC 9144 and Escherichia coli NCTC 8196
Experiment: Antimicrobial activity in agar plates after irradiation with xenon light, viable bacteria counted
Type: cell-based
Protocol: Determination of Antimicrobial Activity of Tinopal CBS-X after Irradiation with Light
The optical brightener of the formula [drawing 28]
is incorporated in agar plates and subsequently inoculated with bacteria and irradiated with xenon light for 10 minutes or 30 minutes.
The test is used to detect antimicrobial activity by comparison with unirradiated samples.
To this end, a 1.5% stock solution in DMSO is prepared.
0.5 and 0.1 ml of this solution are added to 15 ml of liquid agar (final concentration: 500 and 100 ppm).
After solidification and drying, a bacterial mixture of Staphylococcus aureus and Escherichia coli is plated out on the agar (final concentration cfu/ml:˜10^5). The plates are fixed on cotton by means of double sided Scotch tape and are irradiated with a xenon lamp for 10 or 30 minutes.
Unirradiated agar plattes including 100 and 500 ppm of Tinopal CBS-X and agar plates without Tinopal are incubated as controls.
All plates were incubated at 37° C. for about 48 hours. After incubation, viable bacteria are counted (see Table 1).
Staphylococcus aureus ATCC 9144
Escherichia coli NCTC 8196
Cultures 18 to 24 hours in casein soymeal peptone broth diluted 1:5000 (Staph.) and 1:10,000 (E. coli) and mixed together
The table reports the number of colony-forming units of bacteria after 10 minutes' and 30 minutes' irradiation.

## O=S(=O)([O-])c1ccccc1C=Cc1ccc(-c2ccc(C=Cc3ccccc3S(=O)(=O)[O-])cc2)cc1.[Na+].[Na+] [Tinopal CBS-X]
100 ppm in agar, control not irradiated with xenon light (t: 0′)
  number of colony-forming units of bacteria: 4.4 × 10^4 (t: 0′) colony-forming units
100 ppm in agar, irradiated with xenon light, 10 minutes, incubated 37° C. about 48 hours
  number of colony-forming units of bacteria: 2.3 × 10^4 colony-forming units
100 ppm in agar, irradiated with xenon light, 30 minutes, incubated 37° C. about 48 hours
  number of colony-forming units of bacteria: 5.1 × 10^2 colony-forming units
100 ppm or 500 ppm in agar nutrient medium, 30 minutes' irradiation with a xenon lamp
  reduction of the microorganisms compared with unirradiated plates and plates without Tinopal CBS-X: effective to substantially reduce the microorganisms
500 ppm in agar, control not irradiated with xenon light (t: 0′)
  number of colony-forming units of bacteria: 4.3 × 10^4 (t: 0′) colony-forming units
500 ppm in agar, irradiated with xenon light, 10 minutes, incubated 37° C. about 48 hours
  number of colony-forming units of bacteria: 3.0 × 10^4 colony-forming units
500 ppm in agar, irradiated with xenon light, 30 minutes, incubated 37° C. about 48 hours
  number of colony-forming units of bacteria: 1.5 × 10^2 colony-forming units
